The values that follow come from ChEMBL document CHEMBL5375948, “Development and Pharmacochemical Characterization Discover a Novel Brain-Permeable HDAC11-Selective Inhibitor with Therapeutic Potential by Regulating Neuroinflammation in Mice” (J Med Chem, 2023).

By pIC50 is commonly meant −log10 of the IC50, conventionally taken in molar units.

pIC50: −log10 of the molar value.

In the experiment the target is T1, Histone deacetylase 7 (Homo sapiens, UniProt Q8WUI4).
T1 sequence (Q8WUI4 whole entry): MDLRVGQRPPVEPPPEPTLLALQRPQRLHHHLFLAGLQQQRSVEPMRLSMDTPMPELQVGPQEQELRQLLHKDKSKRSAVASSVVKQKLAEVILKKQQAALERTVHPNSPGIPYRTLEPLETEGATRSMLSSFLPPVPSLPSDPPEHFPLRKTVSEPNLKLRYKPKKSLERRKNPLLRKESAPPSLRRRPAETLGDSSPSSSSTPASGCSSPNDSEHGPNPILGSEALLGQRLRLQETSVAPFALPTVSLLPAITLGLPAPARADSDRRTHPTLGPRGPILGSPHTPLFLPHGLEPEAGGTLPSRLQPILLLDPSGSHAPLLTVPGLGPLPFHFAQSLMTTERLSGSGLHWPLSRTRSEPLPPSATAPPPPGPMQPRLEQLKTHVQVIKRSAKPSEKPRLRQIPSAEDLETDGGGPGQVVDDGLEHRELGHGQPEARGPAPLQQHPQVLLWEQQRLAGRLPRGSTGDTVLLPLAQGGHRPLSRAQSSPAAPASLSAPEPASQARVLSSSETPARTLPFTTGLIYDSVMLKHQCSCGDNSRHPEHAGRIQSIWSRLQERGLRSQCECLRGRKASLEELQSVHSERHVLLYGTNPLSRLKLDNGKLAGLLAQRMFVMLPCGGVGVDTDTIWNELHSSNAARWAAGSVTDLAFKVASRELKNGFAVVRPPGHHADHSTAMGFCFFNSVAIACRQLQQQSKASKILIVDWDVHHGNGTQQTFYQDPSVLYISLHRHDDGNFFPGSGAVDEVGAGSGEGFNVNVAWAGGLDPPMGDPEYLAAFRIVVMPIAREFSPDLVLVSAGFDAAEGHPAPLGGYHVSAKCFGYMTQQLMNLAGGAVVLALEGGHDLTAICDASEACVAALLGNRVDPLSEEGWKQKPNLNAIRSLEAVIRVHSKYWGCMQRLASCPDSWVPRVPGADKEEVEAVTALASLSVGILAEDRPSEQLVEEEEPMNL
Put plainly: Inhibition of recombinant full-length human HDAC7 using FAM-RHKK (trifluor-Ac)-NH2 as substrate by electrophoretic mobility shift assay. (In general: A gel shift assay detects complexes by their altered migration in electrophoresis.)

Take `O=C(NCC12C[C@H]3C[C@@H](C1)C[C@@H](C2)C3)c1ccc2c(ccn2Cc2ccc(C(=O)NO)c(Cl)c2)c1`: the pIC50 is 6.24.
